Test results from US20240269308A1, “PRODRUGS OF TOPOISOMERASE I INHIBITOR FOR ADC CONJUGATIONS AND METHODS OF USE THEREOF” (priority 2022, published 2024).
In brackets after ≈: the same amount, converted by molar mass.

Legend:
[1] = M3385 metabolism in human liver S9 with NADPH and UDPGA; format: in vitro ADME; conditions: 240 min
From the text: (§1) Briefly, hepatocytes are complete liver cells, containing various first-phase and second-phase enzymes that can mediate various metabolic reactions; therefore, it is a better in vitro model to test metabolites. Liver S9 is the supernatant obtained by grinding and centrifuging the liver cells. The enzymes content is lower compared to Hepatocytes. It mainly contains CYP enzymes and some biphasic enzymes (but no biphasic coenzyme), so additional coenzyme (NADPH and UDPGA, etc.) is needed to mediate the biphasic reaction.
The metabolism of model compound M3385 was evaluated in human liver S9 with NADPH and UDPGA as follows:
(§2) Assay buffer: 100 mM potassium phosphate buffer (K+/Mg2+ buffer, pH7.4):
(§3) The initial stock of liver S9 was diluted in K+/Mg^2+ buffer, pH 7.4 from 20 mg/ml to 2× Liver S9 (2 mg/mL) with alamethicin (50 μg/mL):
(§4) 2×LS9/compound M3385 solution was prepared.
(§5) Time zero/T0: 199 μL 2 mg/mL liver S9 solution; 100 μL of 8 mM NADPH solution; 100 μL of 20 mM UDPGA solution; and 1200 μL of ACN were added, vortexed at 1000 rpm for 5 min, then 1 μL of 4 mM test compound solution was added.
T240 with a co-factor: 199 μL 2 mg/mL liver S9 solution; 100 μL of 8 mM NADPH solution; and 100 μL of 20 mM UDPGA solution were added. The T240 sample was prewarmed at 37° C. for 5 min and 1 μL of 4 mM test compound solution was added. After 240 min incubation, 1200 μL of ACN was added and then vortexed at 1000 rpm for 5 min.
(§6) Protein precipitation: quenched samples were centrifuged at 14000 rpm for 5 min.
(§7) Sample preparation: an aliquot of 1200 μL of the supernatant was evaporated under N2 stream until dry. Dried extracts were reconstituted with 200 μL of 25% aqueous ACN, vortexed for 2 minutes, centrifuged at 14000 rpm for 5 min, and then 3 μL of reconstituted supernatant were injected for LC-UV-MS analysis.

[2] = Mouse whole blood stability test; format: in vitro ADME
Procedure: In vitro stability of Linker-Prodrug in mouse whole blood Scheme 15. Metabolism of LP1 (M2980) in whole blood.
Stock solution of test compound was provided in 100% DMSO. The stock solution for each compound was diluted into 500 μM with mixture of 50% acetonitrile, then diluted into mouse blood to achieve a final concentration of 1.0 μM. 1.0 μM of test compound in duplicate was incubated in blood at 37° C. Aliquots of 50 uL sample was collected at 0, 15, 30, 60, 120, 240, 480 min, and 24 hours. Reactions were terminated at various time points (0, 15, 30, 60, 120, 240, 480 min, 24 hours) by adding 200 μL of ice-cold acetonitrile containing internal standard with 1% formic acid and then ultrasound for 30 seconds. Plate was centrifuged (4000 rpm, 15 min). 50 μL of supernatants were transferred into a daughter plate containing 200 μL of H2O in each well. The samples were mixed well and analyzed with UPLC-MS/MS.
A Waters liquid chromatographic system was used. Detection was performed on AP14000 Q-Trap and AP15500 mass spectrometer equipped with TurbolonSpray (ESI) Interface (Applied Biosystems, Concord, Ontario, Canada). Analyst 1.5 and 1.6.2 software packages (Applied Biosystems) were used to control the LC-MS/MS system, as well as for data acquisition and processing.
Chromatographic separation was achieved on the Wates BEH C18 column (50*2.1 mm ID, 1.7 μm). The column temperature was maintained at ambient temperature (25° C.). The flow rate was maintained at 0.6 mL/min and the following mobile phases were used: water (0.1% formic acid, v/v) (phase A) and acetonitrile (0.1% formic acid, v/v) (phase B).
Test compounds (1.0 μM) were incubated in blood at 37° C. in duplicate. Aliquots of 50 uL sample was collected at 0, 15, 30, 60, 120, 240, 480 min, and 24 hours. Reactions were terminated at various time points (0, 15, 30, 60, 120, 240, 480 min, 24 hours by adding 200 μL of ice-cold acetonitrile containing internal standard with 1% formic acid, then ultrasound for 30 seconds. The plate was centrifuged (4000 rpm, 15 min). 50 μL of supernatants were transferred into a daughter plate containing 200 μL of water in each well. Samples were mixed well and analyzed with UPLC-MS/MS.
The % was calculated based on initial 1 uM as 100% and the standard concentration curve.

[3] = target: T1, BCRP (Homo sapiens, UniProt Q9UNQ0); conditions: not told
T1 sequence (Q9UNQ0 1-655): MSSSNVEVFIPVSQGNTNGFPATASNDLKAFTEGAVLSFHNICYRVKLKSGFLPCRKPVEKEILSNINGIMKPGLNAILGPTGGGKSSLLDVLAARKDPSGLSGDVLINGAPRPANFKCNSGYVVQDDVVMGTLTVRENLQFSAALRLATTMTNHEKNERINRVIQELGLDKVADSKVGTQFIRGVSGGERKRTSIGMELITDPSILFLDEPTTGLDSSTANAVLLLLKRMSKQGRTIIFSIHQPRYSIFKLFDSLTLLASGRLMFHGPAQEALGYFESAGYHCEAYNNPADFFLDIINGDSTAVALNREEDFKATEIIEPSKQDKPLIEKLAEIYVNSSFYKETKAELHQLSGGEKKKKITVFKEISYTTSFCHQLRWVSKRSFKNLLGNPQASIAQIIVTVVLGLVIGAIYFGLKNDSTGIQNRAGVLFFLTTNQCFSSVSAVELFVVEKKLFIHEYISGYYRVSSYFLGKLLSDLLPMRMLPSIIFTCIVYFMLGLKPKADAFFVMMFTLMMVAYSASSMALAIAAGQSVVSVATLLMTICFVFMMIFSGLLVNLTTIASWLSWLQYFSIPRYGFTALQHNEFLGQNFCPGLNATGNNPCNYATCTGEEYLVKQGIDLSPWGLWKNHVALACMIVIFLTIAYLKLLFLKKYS

[4] = target: pGP (Homo sapiens, UniProt P08183); conditions: not told
pGP, sequence (P08183 whole entry): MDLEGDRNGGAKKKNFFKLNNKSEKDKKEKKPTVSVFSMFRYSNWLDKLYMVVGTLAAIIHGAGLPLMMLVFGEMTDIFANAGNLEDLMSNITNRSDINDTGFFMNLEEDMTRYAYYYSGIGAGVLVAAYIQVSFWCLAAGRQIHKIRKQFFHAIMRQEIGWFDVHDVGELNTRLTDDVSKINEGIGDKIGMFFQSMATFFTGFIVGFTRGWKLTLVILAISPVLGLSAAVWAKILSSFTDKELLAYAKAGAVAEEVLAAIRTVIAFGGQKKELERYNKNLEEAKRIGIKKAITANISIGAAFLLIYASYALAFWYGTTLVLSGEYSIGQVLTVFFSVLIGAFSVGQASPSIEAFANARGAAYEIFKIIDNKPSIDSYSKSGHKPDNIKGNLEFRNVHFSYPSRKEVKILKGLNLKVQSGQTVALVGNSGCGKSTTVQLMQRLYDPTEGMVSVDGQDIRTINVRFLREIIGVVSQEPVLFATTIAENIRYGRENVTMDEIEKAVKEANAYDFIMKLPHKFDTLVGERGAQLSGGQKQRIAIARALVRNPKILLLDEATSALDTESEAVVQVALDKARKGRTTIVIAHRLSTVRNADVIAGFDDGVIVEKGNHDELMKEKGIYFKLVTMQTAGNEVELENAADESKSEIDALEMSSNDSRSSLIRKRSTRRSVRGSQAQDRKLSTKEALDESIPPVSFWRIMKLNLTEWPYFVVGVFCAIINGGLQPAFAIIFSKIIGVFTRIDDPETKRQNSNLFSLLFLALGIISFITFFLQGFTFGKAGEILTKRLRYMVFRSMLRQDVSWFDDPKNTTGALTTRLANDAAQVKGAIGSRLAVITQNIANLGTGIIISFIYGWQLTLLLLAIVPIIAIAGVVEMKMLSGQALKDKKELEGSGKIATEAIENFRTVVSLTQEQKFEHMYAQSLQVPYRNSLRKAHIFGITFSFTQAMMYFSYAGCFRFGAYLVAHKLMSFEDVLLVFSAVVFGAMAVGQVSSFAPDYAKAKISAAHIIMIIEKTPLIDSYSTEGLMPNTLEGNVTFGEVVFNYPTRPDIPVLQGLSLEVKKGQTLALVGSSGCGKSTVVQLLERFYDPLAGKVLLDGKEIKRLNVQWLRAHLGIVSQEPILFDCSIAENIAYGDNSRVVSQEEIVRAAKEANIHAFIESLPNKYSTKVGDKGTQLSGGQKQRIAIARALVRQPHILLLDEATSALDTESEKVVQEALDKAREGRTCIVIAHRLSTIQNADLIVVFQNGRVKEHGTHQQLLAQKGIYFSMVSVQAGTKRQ

[5] = Special liability / stability (Certificate of Analysis of LP1, physical and chemical properties); format: physicochemical; conditions: LP1 13g lot, free base
[6] = Solubility (Certificate of Analysis of LP1, physical and chemical properties); format: physicochemical; conditions: LP1 13g lot, free base
[7] = test system: HCT-15; assay: HCT-15 cell killing EC50 (−v / +v); format: cell-based
[8] = test system: SK-BR-3 cells; assay: SKBR3 cell-based anti-proliferation / viability assay (CellTiter-Glo); parameters: species or system human; conditions: read-out: SKBR3 EC50
Procedure: The anti-Her2 viability assay protocol is following.
0.1% BSA was added to the Opti-MEM reduced serum media [Gibco, cat #31985-070]. This assay media was used for the dilution of ADC and free drug.
Cells were seeded in their growth media into 96 well plates (Thermo #136101) one day prior to adding ADCs: 1000/well SKBR3 cells in 80 uL media (target positive cells), 1000/well NCI-N87 cells in 80 uL media (target positive cells), 1000/well Calu-3 in 80 uL media (target positive cells), and 800/well NCI-H1975 cells in 80ul media (target negative cells).
Serial dilutions of free drug in 100% DMSO (1:4 10 pts starting from 100 uM) were prepared. Serially diluted payload was transferred into Opti-Mem with 0.1% BSA (10 uL into 990 uL media). Serial dilutions of ADCs/isotype controls at 1:4 in Opti-Mem with 0.1% BSA (starting from 5×1000 nM) were prepared. 20ul assay media diluted ADC/isotype conjugates as well as free drug were transferred to above cells. The plates were incubated at 37° C., 5% CO2 for 6 days. Plates were developed by adding 100ul CellTiter Glo 2.0. RT 5-10 min. Plates were read with Envision plate reader. Data was analyzed using Prism. Only inner 60 well are used for the assay. The edge wells were filled with media to prevent dry out.
The cell line used in the anti-proliferation assays was SK-BR-3, a human breast, adenocarcinoma (pleural effusion) cell line; The cells were grown in McCoy's 5a Medium+10% FBS. To run the assay, the cells (80 μl, 1000 cells) were added to each well in a 96-well plate and incubated for 24 hours at 37° C. with CO2. Next, the cells were treated with test compounds (20 μl) at various concentrations in appropriate cell culture medium (total volume, 0.1 mL). The control wells contain cells and the medium but lack the test compounds. The plates were incubated for 144 hours at 37° C. with CO2. CTG reagent was then added to the wells (100 μl). After the plates were shaken for 10 min and then incubated for 10 min at room temperature, paste the clear bottom with white back seal and record luminescence with Envision. The inhibition % was calculated according to the following equation: inhibition %=[1-(assay-blank)/(control-blank)]×100.

[9] = M3385 metabolism in human liver S9 without cofactors NADPH and UDPGA; format: in vitro ADME; conditions: M3385 incubated in human liver S9 without NADPH and UDPGA, 240 min; single peak (parent or metabolite)
From the text: as §1, §2, §3, §4, §5
T240-without a co-factor: 199 μL 2 mg/mL liver S9 solution and 200 μL of buffer were added. The T240-w/o sample was prewarmed at 37° C. for 5 min and 1 μL of 4 mM test compound solution was added. After 240 min incubation, 1200 μL of ACN was added and then vortexed at 1000 rpm for 5 min.
as §6, §7

Question: For `CC[C@@]1(O)C(=O)OCc2c1cc1n(c2=O)Cc2c-1nc1cc(F)c(C)c3c1c2[C@@H](NC(=O)COCNC(=O)CN)CC3` [ProDXd], which “Relative UV Abundance* (%), group total” value ([1]; human, 10 μM, pH 7.4) is on record?
Answer: The value was 3.94%.

Question: What about the “% of test compound in whole blood (initial 1 uM as 100%)” value (from here on “% of test compound in whole blood”) ([2]; mouse, 0 hr, 1 μM) of the same compound?
Answer: The value was 100.0%.

Question: And the “% of test compound in whole blood” value ([2]; mouse, 0.25 hr, 1 μM)?
Answer: The value was 63.9%.

Question: What about the “% of test compound in whole blood” value ([2]; mouse, 0.5 hr, 1 μM) of the same compound?
Answer: Its value is 39.0%.

Question: What about the “% of test compound in whole blood” value ([2]; mouse, 1 hr, 1 μM) of the same compound?
Answer: Its value is 30.7%.

Question: What about the “% of test compound in whole blood” value ([2]; mouse, 2 hr, 1 μM) of the same compound?
Answer: The value was 14.8%.

Question: And the “% of test compound in whole blood” value ([2]; mouse, 4 hr, 1 μM)?
Answer: Its value is 2.7%.

Question: And the “% of test compound in whole blood” value ([2]; mouse, 8 hr, 1 μM)?
Answer: The value was 0.3%.

Question: And the “% of test compound in whole blood” value ([2]; mouse, 24 hr, 1 μM)?
Answer: Its value is 0.0%.

Question: And the BCRP efflux rate [3]?
Answer: The BCRP efflux rate was “Lower”.

Question: What about the pGP efflux rate [4] of the same compound?
Answer: Its pGP efflux rate is “Lower”.

Question: For `CC[C@@]1(O)C(=O)OCc2c1cc1n(c2=O)Cc2c-1nc1cc(F)c(C)c3c1c2[C@@H](NC(=O)COCNC(=O)CNC(=O)OCc1ccc(NC(=O)[C@H](CCCNC(N)=O)NC(=O)[C@@H](NC(=O)CCOCCOCCOCCOCCNC(=O)COC2C#CCCCCC2)C(C)C)cc1)CC3` (stereo partly drawn) [LP1, {4-[(2S)-5-(carbamoylamino)-2-[(2S)-2-{1-[2-(cyclooct-2-yn-1-yloxy)acetamido]-3,6,9,12-tetraoxapentadecan-15-amido}-3-methylbutanamido]pentanamido]phenyl}methyl N-({[({[(10S,23S)-10-ethyl-18-fluoro-10-hydroxy-19-methyl-5,9-dioxo-8-oxa-4,15-diazahexacyclo[14.7.1.0^2,14.0^4,13.0^6,11.0^20,24]tetracosa-1,6(11),12,14,16,18,20(24)-heptaen-23-yl]carbamoyl}methoxy)methyl]carbamoyl}methyl)carbamate], which “% of test compound in whole blood” value ([2]; mouse blood, 37° C., 1.0 μM, 0 hr) is on record?
Answer: Its value is 100.0%.

Question: What about the “% of test compound in whole blood” value ([2]; mouse blood, 37° C., 1.0 μM, 0.25 hr) of the same compound?
Answer: Its value is 88.8%.

Question: What about the “% of test compound in whole blood” value ([2]; mouse blood, 37° C., 1.0 μM, 0.5 hr) of the same compound?
Answer: The value was 82.6%.

Question: And the “% of test compound in whole blood” value ([2]; mouse blood, 37° C., 1.0 μM, 1 hr)?
Answer: The value was 72.3%.

Question: And the “% of test compound in whole blood” value ([2]; mouse blood, 37° C., 1.0 μM, 2 hr)?
Answer: The value was 52.8%.

Question: And the “% of test compound in whole blood” value ([2]; mouse blood, 37° C., 1.0 μM, 4 hr)?
Answer: Its value is 30.5%.

Question: What about the “% of test compound in whole blood” value ([2]; mouse blood, 37° C., 1.0 μM, 8 hr) of the same compound?
Answer: Its value is 16.5%.

Question: What about the “% of test compound in whole blood” value ([2]; mouse blood, 37° C., 1.0 μM, 24 hr) of the same compound?
Answer: Its value is 0.0%.

Question: What about the “Metabolism in whole blood” value ([2]; mouse whole blood, 37° C.) of the same compound?
Answer: The value was “metabolized to ProDXD, and then to DXd”.

Question: What about the “Special liability (light)” value [5] of the same compound?
Answer: Its value is “Light sensitive”.

Question: What about the “Special liability (pH stability)” value [5] of the same compound?
Answer: The value was “unstable at pH <3 or pH >11”.

Question: And the solubility ([6]; in water)?
Answer: Its solubility is 0.026 mM (≈ 36.3 µg/mL).

Question: What about the solubility ([6]; organic solvent or mixture, in DMSO) of the same compound?
Answer: Its solubility is 10 mM (≈ 14000 µg/mL).

Question: What does the source list for `CC[C@@]1(O)C(=O)OCc2c1cc1n(c2=O)Cc2c-1nc1cc(F)c(C)c3c1c2[C@@H](N)CC3` [EXT, reference compound]?
Answer: EC50 ([7]; +v): 1.13 nM; EC50 ([7]; −v): 1.22 nM; EC50 [8]: 0.52 nM

Question: What does the source list for `CC[C@@](O)(C(=O)O)c1cc2n(c(=O)c1CO)Cc1c-2nc2cc(F)c(C)c3c2c1[C@@H](NC(=O)CO)CC3` [MP2R]?
Answer: Relative UV Abundance* (%) ([1]; M3385 incubated in human liver S9 with NADPH and UDPGA, single peak (parent or metabolite)): 0.14%; Relative UV Abundance* (%) [9]: 0.18%
